Measured values published in patent publication US10398785B2, “Pharmaceutical compositions containing taxane-cyclodextrin complexes, method of making and methods of use” (MERIDIAN LAB, priority 2015, dated 2019).

Assay: Accelerated aging stability study at 40° C. for eleven days (impurities by HPLC, USP35)
Assay type: physicochemical
Details: in the liquid pharmaceutical composition throughout 11 days of accelerated aging at 40° C.
Experimental: A liquid pharmaceutical composition as described above, comprising ˜10 mg/mL docetaxel was diluted and subjected to accelerated aging at 40° C. for eleven days. The levels of impurities as specified by USP35 (United States Pharmacopeia 35) for taxane compositions were analyzed by HPLC at regular intervals. Stability was tested at 6 hours on day 0. Impurity levels in the liquid pharmaceutical compositions were compared to the allowable level according to the USP35 standard.

Compound: CC(=O)O[C@@]12CO[C@@H]1C[C@H](O)[C@@]1(C)C(=O)[C@H](O)C3=C(C)[C@@H](OC(=O)[C@H](O)[C@@H](NC(=O)OC(C)(C)C)c4ccccc4)C[C@@](O)([C@@H](OC(=O)c4ccccc4)[C@H]21)C3(C)C [docetaxel]
- Concentration of docetaxel: 9520 µg/mL
